Data on 4 molecules can be found in publication PMC10138554, “Insights into the Microbicidal, Antibiofilm, Antioxidant and Toxicity Profile of New O-Aryl-Carbamoyl-Oxymino-Fluorene Derivatives” (International Journal of Molecular Sciences, 2023).

One series has as its system C. albicans ATCC 90029. Briefly: MIC assay, serial two-fold microdilution in liquid medium. In kind it is cell-based. The settings on record: Candida albicans, ATCC90029; C. albicans ATCC 90029, planktonic, 37 °C, 24 h; read-out: minimum inhibitory concentration (MIC). The protocol: (§1) The inhibitory activity of the obtained compounds has been assessed on five microbial strains, respectively: E. coli ATCC 25922, P. aeruginosa ATCC 27853, S. aureus ATCC 25923, E. faecalis ATCC 29212 and C. albicans ATCC 90029, in a planktonic and adherent growth state.
(§2) The MIC assay was performed by the serial two-fold microdilutions in a liquid medium, using a concentration range from 5 to 0.009 mg/mL and microbial suspensions of 0.5 MacFarland density. The wells containing only the microbial culture served as positive control and those containing the sterile culture medium as the negative control. The MIC values were read after incubation at 37 °C for 24 h.

Series [1] concerns E. coli ATCC 25922. The series is described as above. In kind it is cell-based. Particulars: Escherichia coli, ATCC25922; E. coli ATCC 25922, planktonic, 37 °C, 24 h; read-out: minimum inhibitory concentration (MIC). The protocol: as §1, §2
The subject of series [2] is E. faecalis ATCC 29212. The description is as above. The class given is cell-based. Particulars: Enterococcus faecalis, ATCC29212; E. faecalis ATCC 29212, planktonic, 37 °C, 24 h; read-out: minimum inhibitory concentration (MIC). The protocol: as §1, §2
Series [3] deals with P. aeruginosa ATCC 27853. The description is as above. In kind it is cell-based. Particulars: Pseudomonas aeruginosa, ATCC27853; P. aeruginosa ATCC 27853, planktonic, 37 °C, 24 h; read-out: minimum inhibitory concentration (MIC). The protocol:
as §1, §2

Series [4] deals with S. aureus ATCC 25923. The description is as above. The class given is cell-based. The settings on record: Staphylococcus aureus, ATCC25923; S. aureus ATCC 25923, planktonic, 37 °C, 24 h; read-out: minimum inhibitory concentration (MIC). The protocol:
as §1, §2

The subject of series [5] is P. aeruginosa ATCC 27853. Briefly: Anti-biofilm activity assay, purple violet microtiter method. In kind it is cell-based, Pseudomonas aeruginosa. The settings on record: P. aeruginosa ATCC 27853 biofilm. The protocol:
as §1
The anti-biofilm activity assay was performed by the purple violet microtiter method, as previously described, allowing us to determine the minimal biofilm inhibitory concentration (MBEC). The same range of concentrations, as in the MIC assay, i.e., from 5 to 0.009 mg/mL has been tested.

Series [6] concerns E. faecalis ATCC 29212. Briefly: Flow cytometry (FCM) membrane depolarization, DiBAC4(3). The class given is cell-based. The settings on record: for staining index value (SI): E. faecalis ATCC 29212, DiBAC4, 18–24 h. The protocol:
(§3) The investigation of potential mechanisms of antimicrobial action by flow cytometry (FCM) was performed on microbial cultures obtained after 18–24 h of microbial cell incubation in the presence of subinhibitory concentrations of the analyzed compounds. Thus, microbial suspensions with a density of approximately 10^6 CFU/mL were prepared in sterile saline phosphate buffer from exponentially growing microbial cultures, obtained on a solid culture medium. Subinhibitory concentrations of the compounds were prepared in Muller–Hinton liquid culture medium and inoculated with an equal amount of microbial suspension and incubated for 18–24 h at 37 °C.
(§4) Microbial suspensions inoculated in a liquid medium were used as growth control. After incubation, the DiBAC4 fluorochrome solution [bis-(1,3-dibutylbarbituric acid) trimethinoxonol] Invitrogen/Life Technologies, Carlsbad, was added (0.5 μg/mL).
(§5) Fluorescence intensity (FI) was measured with an Accuri C6 plus flow cytometer in the FITC fluorescence channel. Growth control was used to locate the microbial cell population for fluorescence measurements. DiBAC4 dye was used to detect changes in the microbial membrane potential. […] A twofold increased fluorescence intensity (median fluorescence intensity = MFI) was considered to correspond to the depolarized microbial cells. For each subinhibitory concentration, a coloring index (CI) was calculated which represents the ratio of fluorescence intensity (FI) of treated versus untreated cells.

Series [7] has as its system S. aureus ATCC 25923. Described as above. The class given is cell-based, Staphylococcus aureus. The settings on record: for staining index value (SI): S. aureus ATCC 25923, DiBAC4, 18–24 h. The protocol:
as §3, §4, §5

The subject of series [8] is E. coli ATCC 25922. Described as above. The class given is cell-based, Escherichia coli. The settings on record: DiBAC4, 18–24 h. The protocol:
as §3, §4, §5

For series [9], the system named is Artemia franciscana Kellog nauplii. Put plainly: Toxicity on the Artemia franciscana Kellog crustacean species (lethality of nauplii). The class given is in vivo. Particulars: tested concentrations 6.2–100 μg/mL (solubility limit), 24 h. The protocol:
The oocysts (Great Salt Lake, USA) provided by S.K. Trading were grown on artificial seawater medium (Coral Marine, Grotech), dissolved in distilled water with a few minutes of sonication, at 30 g/L concentration. The test was carried out in a 24-well plate, using three replicates. Because of their low solubility, the compounds 1a–d were suspended in the culture medium using sodium alginate (0.045%) (also used a negative control), the testing being carried out at the solubility limit. The concentrations 100, 50, 25, 12.5 and 6.2 μg/mL used for each substance were obtained by successive dilutions starting from the initial suspension. Between 10 and 15 nauplii per well were collected and placed in contact with the test suspensions (1.5 mL/well). All nauplii, dead or alive, were counted and recorded within 24 h of being placed in contact with the tested suspensions. The non-linear modeling of the concentration-lethality relationship was achieved through a four-parameter logistics model (4PL), implemented in several robust variants for estimating parameters in the R package “dr4pl” [78].

A short description of series [10]: In vitro cytotoxicity assay, IncuCyte S3 live-cell analysis. The class given is cell-based. The settings on record: human, 72-h period. The protocol:
The cytotoxicity of the investigated compounds was tested using the IncuCyte Basic Analysiskit, allowing to calculate the IC50, against three tumoral cell lines, i.e., HeLa (cervical cancer cells), HT29 (colon adenocarcinoma) and MG63 (osteosarcoma). The selected metric of the concentration-response module was set on phase and confluence (%).
In our experiments, we used colorectal adenocarcinoma HT29 (ATCC HTB-38), cervical adenocarcinoma cells HeLa (ATCC CRM-CCL2), and osteosarcoma MG63 (ATCC CRL-1427). The cells were maintained in Dulbeco’s Modified Medium (DMEM): F12 (Thermo Fisher Scientific, Waltham, MA, USA) supplemented with 10% fetal bovine serum (FBS, Thermo Fisher Scientific, Waltham, MA, USA). For the in vitro evaluation of their cytotoxicity, the new derivatives were solubilized in DMSO at a concentration of 10 mg/mL and filtered with 0.22 µm Millex-GV Filter (Merck, Darmstadt, Germany). For cytotoxicity kinetics, the IncuCyte® S3 Live-Cell Analysis System (Sartorius, AG, Goettingen, Germany) was used. Briefly, 2 × 10^4 cells seeded in 96 well plates were treated with the new derivatives in a concentration ranging between 500 μg/mL and 3.9 μg/mL. The plates were placed in the IncuCyte® S3 Live-Cell Analysis System, and five images per well were taken every six h over a 72-h period and then processed, according to kit recommendations.

[11] abbreviates: subinhibitory concentration tested 2.5 mg/mL.
Where [12] appears, read: subinhibitory concentration tested 1.25 mg/mL.
Where [13] appears, read: HT29 cells (colorectal adenocarcinoma), HT29, phase confluence (%).
The mark [14] stands for this setting: HeLa cells (cervical adenocarcinoma), phase confluence (%).
Setting [15] is: MG63 cells (osteosarcoma), MG63, phase confluence (%).

Values after ≈ are worked out from the molar mass of the structure shown.

As for `O=C(Nc1ccccc1)ON=C1c2ccccc2-c2ccccc21` [Compound 1a, 9-(phenylcarbamoyloxymino)fluoren], the MIC with C. albicans ATCC 90029, in the series on E. coli ATCC 25922 [1], in the series on E. faecalis ATCC 29212 [2], with P. aeruginosa ATCC 27853 [3] and with S. aureus ATCC 25923 [4] was 2500 µg/mL (≈ 7.95 mM) each time. The “minimum biofilm inhibitory concentration (MBIC)” value with P. aeruginosa ATCC 27853 [5] was 0.009 mg/mL. Besides, the figures for the “staining index value (SI)” value in the series on E. faecalis ATCC 29212 [6] (setting [11]), in the series with S. aureus ATCC 25923 [7] (setting [11]) and in the series with E. coli ATCC 25922 [8] (setting [12]) were 2.21, 3.5 and 80.7, respectively. The “toxicity (in words)” value in series [9] is “not toxic”. The IC50 at 72 h in series [10] (setting [13]) came out at 11 ± 0.75 µg/mL (≈ 0.035 mM); in [10] (setting [14]), 7.52 ± 1.39 µg/mL (≈ 0.0239 mM); in series [10] (setting [15]) it was 31.5 µg/mL (≈ 0.1 mM).
On to `O=C(Nc1ccc(Cl)c(Cl)c1)ON=C1c2ccccc2-c2ccccc21` [Compound 1d, 9-((3,4-dichloro-phenyl)carbamoyloxymino)fluoren], for which the MIC stood at 5000 µg/mL (≈ 13 mM) with C. albicans ATCC 90029; 5000 µg/mL (≈ 13 mM) with E. coli ATCC 25922 [1]; 5000 µg/mL (≈ 13 mM) in the series with E. faecalis ATCC 29212 [2]; 2500 µg/mL (≈ 6.52 mM) with P. aeruginosa ATCC 27853 [3]; 156 µg/mL (≈ 0.407 mM) with S. aureus ATCC 25923 [4]. Also, the “minimum biofilm inhibitory concentration (MBIC)” value with P. aeruginosa ATCC 27853 [5] was found to be 1.25 mg/mL. The “staining index value (SI)” value with E. faecalis ATCC 29212 [6] (setting [12]) worked out at 44.54; in the series on S. aureus ATCC 25923 [7] (setting [12]), 4.2; in the series with E. coli ATCC 25922 [8] (setting [12]), 173.3. The “toxicity (in words)” value in [9] is “moderate toxicity”. The IC50 at 72 h in [10] (setting [13]) amounted to 8.17 ± 2.98 µg/mL (≈ 0.0213 mM); in series [10] (setting [14]), 7.59 ± 3.64 µg/mL (≈ 0.0198 mM); in [10] (setting [15]) it was 26.3 ± 0.92 µg/mL (≈ 0.0686 mM).
On to `O=C(Nc1cccc(Cl)c1)ON=C1c2ccccc2-c2ccccc21` [Compound 1c, 9-((3-chloro-phenyl)carbamoyloxymino)fluoren], for which the MIC in the series on C. albicans ATCC 90029 came out at 5000 µg/mL (≈ 14.3 mM); in the series with E. coli ATCC 25922 [1] it was 2500 µg/mL (≈ 7.17 mM); in the series with E. faecalis ATCC 29212 [2] it was 5000 µg/mL (≈ 14.3 mM); in the series on P. aeruginosa ATCC 27853 [3], 2500 µg/mL (≈ 7.17 mM); in the series on S. aureus ATCC 25923 [4], 2500 µg/mL (≈ 7.17 mM). In the series on P. aeruginosa ATCC 27853 [5], the “minimum biofilm inhibitory concentration (MBIC)” value turned out to be 1.25 mg/mL. Also, the “changes in the membrane potential” value in the series with E. faecalis ATCC 29212 [6] (E. faecalis ATCC 29212, subinhibitory concentration) is on record as “did not cause changes”; with S. aureus ATCC 25923 [7] (S. aureus ATCC 25923, subinhibitory concentration) it was “did not cause changes”. Besides, the “staining index value (SI)” value in the series with E. faecalis ATCC 29212 [6] (setting [12]) worked out at 0.32; with S. aureus ATCC 25923 [7] (setting [11]) it was 0.19; with E. coli ATCC 25922 [8] (setting [12]) it was 3.2. Besides, the “toxicity (in words)” value in series [9] is given as “not toxic”. Also, the IC50 at 72 h in series [10] (setting [13]) is 10.8 ± 1.36 µg/mL (≈ 0.031 mM); in series [10] (setting [14]) it was 8.9 ± 2.56 µg/mL (≈ 0.0255 mM); in [10] (setting [15]) it was 22.8 ± 0.78 µg/mL (≈ 0.0654 mM).
On to `Cc1cccc(NC(=O)ON=C2c3ccccc3-c3ccccc32)c1` [Compound 1b, 9-((3-methyl-phenyl)carbamoyloximino)fluoren], for which the MIC with C. albicans ATCC 90029 turned out to be 5000 µg/mL (≈ 15.2 mM); in the series on E. coli ATCC 25922 [1], 5000 µg/mL (≈ 15.2 mM); in the series on E. faecalis ATCC 29212 [2], 10000 µg/mL (≈ 30.5 mM); in the series with P. aeruginosa ATCC 27853 [3], 2500 µg/mL (≈ 7.61 mM); in the series on S. aureus ATCC 25923 [4], 2500 µg/mL (≈ 7.61 mM). The “minimum biofilm inhibitory concentration (MBIC)” value with P. aeruginosa ATCC 27853 [5] is recorded as 0.156 mg/mL. In addition, the figures for the “staining index value (SI)” value with E. faecalis ATCC 29212 [6] (setting [11]), with S. aureus ATCC 25923 [7] (setting [11]) and with E. coli ATCC 25922 [8] (setting [11]) were 3.99, 8.17 and 10.2, respectively. In addition, the “toxicity (in words)” value in series [9] is recorded as “not toxic”. Further, the 50% inhibitory concentration (IC50) at 72 h in series [10] (setting [13]) was 6.33 ± 3.02 µg/mL (≈ 0.0193 mM); in series [10] (setting [14]), 8.5 ± 2.26 µg/mL (≈ 0.0259 mM); in series [10] (setting [15]), 22 ± 2.48 µg/mL (≈ 0.067 mM).
